# Experimental data reported in ChEMBL document CHEMBL4673392, “Discovery of a Novel Series of Potent and Selective Alkynylthiazole-Derived PI3Kγ Inhibitors” (ACS Med Chem Lett, 2021).
# Key:
# [1] = biological target: T1, Phosphatidylinositol 4,5-bisphosphate 3-kinase catalytic subunit gamma isoform (Homo sapiens, UniProt P48736); assay: Inhibition of PI3Kgamma in human THP-1 cells assessed as reduction in Akt phosphorylation at Ser473 residue; format: cell-based
# [2] = biological target: T1, Phosphatidylinositol 4,5-bisphosphate 3-kinase catalytic subunit gamma isoform; assay: Inhibition of PI3Kgamma (unknown origin) using PIP2 as substrate measured after 15 mins in presence of [33P]-ATP by liquid scintillation counting method
# [3] = biological target: Proto-oncogene tyrosine-protein kinase Src (Homo sapiens, UniProt P12931); assay: Inhibition of SRC (unknown origin)
# [4] = biological target: Vascular endothelial growth factor receptor 2 (Homo sapiens, UniProt P35968); assay: Inhibition of KDR (unknown origin)
# [5] = biological target: T2, Receptor-type tyrosine-protein kinase FLT3 (Homo sapiens, UniProt P36888); assay: Inhibition of FLT3 (unknown origin)
# T2 sequence (P36888 whole entry): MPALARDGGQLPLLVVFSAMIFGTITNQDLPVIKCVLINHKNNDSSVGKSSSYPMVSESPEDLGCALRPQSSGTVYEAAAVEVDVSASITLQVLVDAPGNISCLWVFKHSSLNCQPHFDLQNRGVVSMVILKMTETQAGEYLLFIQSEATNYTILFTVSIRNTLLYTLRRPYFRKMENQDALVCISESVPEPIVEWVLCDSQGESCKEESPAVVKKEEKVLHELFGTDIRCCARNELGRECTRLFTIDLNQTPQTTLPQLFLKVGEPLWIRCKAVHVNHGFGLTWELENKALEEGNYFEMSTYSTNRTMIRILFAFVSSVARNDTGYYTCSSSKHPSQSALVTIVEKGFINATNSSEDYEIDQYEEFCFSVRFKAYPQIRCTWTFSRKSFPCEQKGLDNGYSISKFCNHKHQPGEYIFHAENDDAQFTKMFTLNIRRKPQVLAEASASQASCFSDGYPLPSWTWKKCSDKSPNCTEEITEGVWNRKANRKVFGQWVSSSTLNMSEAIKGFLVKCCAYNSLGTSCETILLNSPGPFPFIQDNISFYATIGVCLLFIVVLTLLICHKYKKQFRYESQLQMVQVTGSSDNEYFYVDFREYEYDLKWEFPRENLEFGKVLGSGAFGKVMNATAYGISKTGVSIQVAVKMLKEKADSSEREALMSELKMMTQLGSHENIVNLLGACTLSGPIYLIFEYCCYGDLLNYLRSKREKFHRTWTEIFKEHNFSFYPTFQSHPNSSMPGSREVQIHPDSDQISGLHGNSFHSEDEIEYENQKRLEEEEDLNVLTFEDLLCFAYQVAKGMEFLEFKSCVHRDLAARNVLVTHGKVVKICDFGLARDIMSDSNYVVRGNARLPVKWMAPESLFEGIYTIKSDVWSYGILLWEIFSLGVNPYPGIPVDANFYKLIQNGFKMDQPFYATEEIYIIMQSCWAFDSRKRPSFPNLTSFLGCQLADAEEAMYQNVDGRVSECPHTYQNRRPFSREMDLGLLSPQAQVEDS
# [6] = biological target: Mitogen-activated protein kinase 10 (Homo sapiens, UniProt P53779); assay: Inhibition of JNK3 (unknown origin)
# [7] = biological target: Tyrosine-protein kinase SYK (Homo sapiens, UniProt P43405); assay: Inhibition of SYK (unknown origin)
# [8] = system: Mus musculus; assay: Antiinflammatory activity against Balb/c mouse air pouch model assessed as decrease in IL-8 stimulated neutrophil recruitment in air pouch at 50 mg/kg, po treated for 1 hr prior to IL-8 administration and measured after 4 hrs by FACS analysis; format: functional; settings: time 5 hrs
# [9] = biological target: Cyclin-dependent kinase 2 (Homo sapiens, UniProt P24941); assay: Inhibition of CDK2 (unknown origin)
# [10] = biological target: Tyrosine-protein kinase JAK2 (Homo sapiens, UniProt O60674); assay: Inhibition of JAK2 (unknown origin)
# [11] = biological target: Rho-associated protein kinase 1 (Homo sapiens, UniProt Q13464); assay: Inhibition of ROCK1 (unknown origin)
# [12] = biological target: T3, Interleukin-1 receptor-associated kinase 4 (Homo sapiens, UniProt Q9NWZ3); assay: Inhibition of IRAK4 (unknown origin)
# T3 sequence (Q9NWZ3 whole entry): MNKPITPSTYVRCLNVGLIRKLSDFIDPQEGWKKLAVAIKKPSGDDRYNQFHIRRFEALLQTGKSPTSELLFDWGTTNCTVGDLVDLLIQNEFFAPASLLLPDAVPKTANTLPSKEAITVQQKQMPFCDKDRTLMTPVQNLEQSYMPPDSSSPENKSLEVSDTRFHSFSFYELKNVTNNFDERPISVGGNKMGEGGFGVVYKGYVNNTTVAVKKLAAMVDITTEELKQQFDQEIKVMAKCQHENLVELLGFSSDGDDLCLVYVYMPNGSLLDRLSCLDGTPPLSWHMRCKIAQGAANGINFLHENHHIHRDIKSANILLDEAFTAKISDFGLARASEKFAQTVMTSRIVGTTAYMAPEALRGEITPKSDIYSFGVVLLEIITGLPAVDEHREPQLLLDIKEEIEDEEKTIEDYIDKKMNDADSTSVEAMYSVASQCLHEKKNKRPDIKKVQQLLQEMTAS
# [13] = biological target: Serine/threonine-protein kinase PLK1 (Homo sapiens, UniProt P53350); assay: Inhibition of PLK1 (unknown origin)
# [14] = biological target: Glycogen synthase kinase-3 beta (Homo sapiens, UniProt P49841); assay: Inhibition of GSK3B (unknown origin)
# [15] = biological target: Phosphatidylinositol 4,5-bisphosphate 3-kinase catalytic subunit alpha isoform (Homo sapiens, UniProt P42336); assay: Inhibition of PI3Kalpha (unknown origin) using PIP2 as substrate measured after 15 mins in presence of [33P]-ATP by liquid scintillation counting method
# Chain of Serine/threonine-protein kinase PLK1 (P53350 whole entry): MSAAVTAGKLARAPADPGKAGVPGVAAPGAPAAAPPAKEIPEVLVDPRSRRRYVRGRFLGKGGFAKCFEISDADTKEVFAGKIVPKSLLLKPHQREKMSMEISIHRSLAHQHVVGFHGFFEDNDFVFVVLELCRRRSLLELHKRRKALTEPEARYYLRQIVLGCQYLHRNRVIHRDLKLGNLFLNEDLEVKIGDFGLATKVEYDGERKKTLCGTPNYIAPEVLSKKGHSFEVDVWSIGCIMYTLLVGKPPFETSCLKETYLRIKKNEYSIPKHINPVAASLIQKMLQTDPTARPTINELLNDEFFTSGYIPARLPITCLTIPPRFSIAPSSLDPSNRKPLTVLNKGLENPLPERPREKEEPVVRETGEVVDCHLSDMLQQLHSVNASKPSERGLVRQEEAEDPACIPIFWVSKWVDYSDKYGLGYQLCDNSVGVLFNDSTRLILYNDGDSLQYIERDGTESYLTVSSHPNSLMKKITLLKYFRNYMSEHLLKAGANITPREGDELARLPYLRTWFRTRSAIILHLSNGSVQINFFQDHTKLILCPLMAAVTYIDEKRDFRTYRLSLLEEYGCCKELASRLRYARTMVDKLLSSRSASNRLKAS
# Chain of Vascular endothelial growth factor receptor 2 (P35968 whole entry): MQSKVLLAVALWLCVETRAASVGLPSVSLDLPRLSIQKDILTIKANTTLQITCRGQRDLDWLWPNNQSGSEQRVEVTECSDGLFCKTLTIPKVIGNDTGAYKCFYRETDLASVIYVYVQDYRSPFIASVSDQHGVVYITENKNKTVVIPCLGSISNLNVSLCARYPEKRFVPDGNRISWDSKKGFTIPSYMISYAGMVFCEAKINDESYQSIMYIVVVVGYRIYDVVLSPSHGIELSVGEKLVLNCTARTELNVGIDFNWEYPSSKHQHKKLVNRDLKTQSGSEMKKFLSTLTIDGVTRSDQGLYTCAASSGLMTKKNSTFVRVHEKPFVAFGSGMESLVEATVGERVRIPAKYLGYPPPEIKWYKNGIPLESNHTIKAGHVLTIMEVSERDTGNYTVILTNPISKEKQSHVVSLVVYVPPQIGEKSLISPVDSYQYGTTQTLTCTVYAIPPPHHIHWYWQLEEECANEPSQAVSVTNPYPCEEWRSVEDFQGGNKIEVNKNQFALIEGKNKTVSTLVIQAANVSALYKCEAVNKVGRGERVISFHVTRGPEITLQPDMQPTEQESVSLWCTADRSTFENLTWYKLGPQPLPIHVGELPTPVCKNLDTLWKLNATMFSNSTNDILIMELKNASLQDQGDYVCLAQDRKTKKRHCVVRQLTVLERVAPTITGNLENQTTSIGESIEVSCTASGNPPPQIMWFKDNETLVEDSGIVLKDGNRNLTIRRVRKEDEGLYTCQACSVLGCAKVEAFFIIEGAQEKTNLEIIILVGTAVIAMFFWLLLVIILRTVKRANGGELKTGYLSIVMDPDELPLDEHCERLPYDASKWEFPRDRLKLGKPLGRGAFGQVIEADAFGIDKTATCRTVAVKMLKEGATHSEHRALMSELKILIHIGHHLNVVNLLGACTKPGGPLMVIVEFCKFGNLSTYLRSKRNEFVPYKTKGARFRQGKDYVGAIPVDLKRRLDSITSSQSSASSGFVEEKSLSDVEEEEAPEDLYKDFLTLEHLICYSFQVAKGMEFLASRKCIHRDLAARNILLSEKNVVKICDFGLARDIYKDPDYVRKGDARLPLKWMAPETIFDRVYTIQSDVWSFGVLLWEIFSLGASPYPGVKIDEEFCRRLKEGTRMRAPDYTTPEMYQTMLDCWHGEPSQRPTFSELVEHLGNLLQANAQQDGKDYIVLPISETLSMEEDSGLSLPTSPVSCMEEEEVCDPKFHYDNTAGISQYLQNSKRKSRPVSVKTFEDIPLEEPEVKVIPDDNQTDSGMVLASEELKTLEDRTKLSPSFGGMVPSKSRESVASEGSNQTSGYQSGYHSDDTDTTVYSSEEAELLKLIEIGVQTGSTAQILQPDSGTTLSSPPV
# Chain of Proto-oncogene tyrosine-protein kinase Src (P12931 2-536 limits assumed): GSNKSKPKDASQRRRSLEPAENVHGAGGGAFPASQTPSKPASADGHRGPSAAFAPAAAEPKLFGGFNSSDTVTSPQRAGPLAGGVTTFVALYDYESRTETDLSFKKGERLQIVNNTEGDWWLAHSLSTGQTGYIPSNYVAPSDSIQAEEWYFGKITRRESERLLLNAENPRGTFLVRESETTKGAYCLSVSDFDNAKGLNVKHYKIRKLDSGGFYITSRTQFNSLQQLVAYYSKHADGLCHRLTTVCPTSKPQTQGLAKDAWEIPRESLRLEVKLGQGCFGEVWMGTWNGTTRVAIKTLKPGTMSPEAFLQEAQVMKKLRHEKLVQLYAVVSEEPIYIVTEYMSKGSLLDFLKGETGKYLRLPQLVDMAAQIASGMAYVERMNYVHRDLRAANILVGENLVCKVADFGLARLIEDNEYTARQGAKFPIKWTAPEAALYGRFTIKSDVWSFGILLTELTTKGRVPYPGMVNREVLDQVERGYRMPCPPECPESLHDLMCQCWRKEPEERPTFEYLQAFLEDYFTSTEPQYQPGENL
# Chain of Mitogen-activated protein kinase 10 (P53779 whole entry): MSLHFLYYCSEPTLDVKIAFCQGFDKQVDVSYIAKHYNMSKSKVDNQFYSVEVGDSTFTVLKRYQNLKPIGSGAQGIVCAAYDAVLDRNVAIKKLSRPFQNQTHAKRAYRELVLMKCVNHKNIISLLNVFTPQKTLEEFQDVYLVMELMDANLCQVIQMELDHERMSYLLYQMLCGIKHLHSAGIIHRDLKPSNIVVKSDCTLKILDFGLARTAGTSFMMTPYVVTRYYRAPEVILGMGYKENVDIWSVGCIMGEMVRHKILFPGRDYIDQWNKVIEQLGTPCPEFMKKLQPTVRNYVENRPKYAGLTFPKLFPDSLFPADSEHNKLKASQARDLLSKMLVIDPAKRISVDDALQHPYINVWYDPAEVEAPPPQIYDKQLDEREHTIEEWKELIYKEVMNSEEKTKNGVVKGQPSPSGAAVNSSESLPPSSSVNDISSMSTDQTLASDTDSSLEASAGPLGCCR
# Chain of Rho-associated protein kinase 1 (Q13464 whole entry): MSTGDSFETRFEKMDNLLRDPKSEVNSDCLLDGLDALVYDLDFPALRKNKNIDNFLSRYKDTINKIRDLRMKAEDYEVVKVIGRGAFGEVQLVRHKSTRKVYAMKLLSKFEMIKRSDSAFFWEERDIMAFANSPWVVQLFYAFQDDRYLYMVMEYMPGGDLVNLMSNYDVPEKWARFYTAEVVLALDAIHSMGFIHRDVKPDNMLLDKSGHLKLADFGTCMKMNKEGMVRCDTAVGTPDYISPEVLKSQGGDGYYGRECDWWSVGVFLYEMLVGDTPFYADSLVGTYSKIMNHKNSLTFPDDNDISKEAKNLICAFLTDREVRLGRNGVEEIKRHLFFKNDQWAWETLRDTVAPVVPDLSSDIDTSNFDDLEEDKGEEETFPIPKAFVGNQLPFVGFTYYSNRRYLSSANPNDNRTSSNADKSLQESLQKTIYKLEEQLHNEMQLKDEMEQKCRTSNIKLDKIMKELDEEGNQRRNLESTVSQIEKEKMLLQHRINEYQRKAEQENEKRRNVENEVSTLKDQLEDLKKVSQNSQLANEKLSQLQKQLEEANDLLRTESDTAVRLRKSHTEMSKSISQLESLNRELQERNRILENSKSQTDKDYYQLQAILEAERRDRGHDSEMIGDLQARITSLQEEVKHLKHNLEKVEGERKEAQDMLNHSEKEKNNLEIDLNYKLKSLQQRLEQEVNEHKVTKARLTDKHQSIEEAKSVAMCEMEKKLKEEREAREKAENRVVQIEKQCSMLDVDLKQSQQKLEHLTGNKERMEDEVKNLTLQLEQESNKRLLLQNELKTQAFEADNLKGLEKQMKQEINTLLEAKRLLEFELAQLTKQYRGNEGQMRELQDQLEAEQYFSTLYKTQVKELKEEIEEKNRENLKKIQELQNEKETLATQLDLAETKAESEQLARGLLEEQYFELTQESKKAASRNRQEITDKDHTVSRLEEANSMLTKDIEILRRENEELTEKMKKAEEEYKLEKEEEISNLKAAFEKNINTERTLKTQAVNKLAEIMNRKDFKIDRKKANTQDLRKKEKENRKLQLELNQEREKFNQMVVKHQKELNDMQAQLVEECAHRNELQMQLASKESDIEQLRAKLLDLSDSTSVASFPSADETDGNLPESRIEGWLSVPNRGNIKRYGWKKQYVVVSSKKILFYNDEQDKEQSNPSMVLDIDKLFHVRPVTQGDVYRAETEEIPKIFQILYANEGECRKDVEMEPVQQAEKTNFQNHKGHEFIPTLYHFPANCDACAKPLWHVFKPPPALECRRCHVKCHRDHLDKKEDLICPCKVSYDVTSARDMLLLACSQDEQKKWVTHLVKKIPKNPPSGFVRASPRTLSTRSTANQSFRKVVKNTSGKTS
# Chain of Glycogen synthase kinase-3 beta (P49841 whole entry, canonical isoform): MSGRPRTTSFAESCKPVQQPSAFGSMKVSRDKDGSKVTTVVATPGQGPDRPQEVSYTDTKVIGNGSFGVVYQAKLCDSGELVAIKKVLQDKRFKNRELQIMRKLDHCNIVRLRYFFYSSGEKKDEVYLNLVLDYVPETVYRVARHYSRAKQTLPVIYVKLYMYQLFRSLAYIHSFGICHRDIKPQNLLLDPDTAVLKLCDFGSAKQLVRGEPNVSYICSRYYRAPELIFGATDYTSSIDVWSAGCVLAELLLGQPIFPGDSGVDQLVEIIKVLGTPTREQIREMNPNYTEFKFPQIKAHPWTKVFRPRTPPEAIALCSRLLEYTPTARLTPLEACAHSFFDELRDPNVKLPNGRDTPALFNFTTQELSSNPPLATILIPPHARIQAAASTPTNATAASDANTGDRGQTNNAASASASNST
SMILES,IC50 [1],Ki [2],Ki [3],Ki [4],Ki [5],Ki [6],Ki [7],Ki [9],Ki [10],Ki [11],Ki [12],Ki [13],Ki [14],Ki [15],inhibition in vivo at 50 mg/kg [8]
COCCNC(=O)Nc1nc(C)c(C#Cc2ccncc2)s1,0.76 µM,0.043 µM,–,–,–,–,–,–,–,–,–,–,–,–,–
CCCOCCNC(=O)Nc1nc(C)c(C#Cc2ccncc2)s1,0.23 µM,0.006 µM,–,–,–,–,–,–,–,–,–,–,–,–,–
CCOCCNC(=O)Nc1nc(C)c(C#Cc2ccncc2)s1,0.56 µM,0.042 µM,–,–,–,–,–,–,–,–,–,–,–,–,–
Cc1nc(NC(=O)NCCOCC2CC2)sc1C#Cc1ccnc2ccccc12,0.29 µM,0.006 µM,–,–,–,–,–,–,–,–,–,–,–,–,–
Cc1nc(NC(=O)NCCc2cn(CC(F)F)cn2)sc1C#Cc1cccnc1,0.13 µM,0.004 µM,> 4 µM,> 4 µM,> 4 µM,> 4 µM,> 4 µM,> 4 µM,> 4 µM,> 4 µM,> 4 µM,> 4 µM,> 4 µM,0.252 µM,–

# The next lines start with results.
IC50 [1],Ki [2],Ki [3],Ki [4],Ki [5],Ki [6],Ki [7],Ki [9],Ki [10],Ki [11],Ki [12],Ki [13],Ki [14],Ki [15],SMILES,inhibition in vivo at 50 mg/kg [8]
> 10 µM,0.045 µM,–,–,–,–,–,–,–,–,–,–,–,–,Cc1nc(NC(=O)NCCOCC2CC2)sc1C#Cc1cnc2ncccc2c1,–
0.18 µM,0.003 µM,> 4 µM,> 4 µM,> 4 µM,> 4 µM,> 4 µM,> 4 µM,> 4 µM,> 4 µM,> 4 µM,> 4 µM,> 4 µM,–,COc1cc(C#Cc2sc(NC(=O)NCCOCC3CC3)nc2C)cnc1OC,85%
–,–,> 4 µM,> 4 µM,> 4 µM,> 4 µM,> 4 µM,> 4 µM,> 4 µM,> 4 µM,> 4 µM,> 4 µM,> 4 µM,–,Cc1nc(NC(=O)NCCOCC2CC2)sc1C#Cc1ccc2cncn2c1,–
0.49 µM,0.006 µM,–,–,–,–,–,–,–,–,–,–,–,–,Cc1nc(NC(=O)NCCOCC2CC2)sc1C#Cc1ccnc(F)c1,–
